Source: patent US9701958B2, “Method for selecting polynucleotides encoding antigen-specific immunoglobulin subunits” (priority 2012, dated 2017)
Like-named read-outs stand apart in the source and are kept apart here.

Legend:
wild-type vaccinia virus = type: cell-based
VHE H5 HX-A56R NEO = type: cell-based, vaccinia virus

In the case of CN[C@@H]1[C@@H](O)[C@@H](O[C@@H]2[C@@H](O)[C@H](O[C@H]3O[C@H]([C@@H](C)O)[C@@H](O)[C@H](O)[C@H]3N)[C@@H](N)C[C@H]2N)OC[C@]1(C)O [G418], the “inhibition of amplification of wild-type vaccinia virus” value (wild-type vaccinia virus; 0.125 to 2 mg/ml of G418, in words) is reported as “significantly inhibited”, the “% Inhibition” value (wild-type vaccinia virus; G418 0.125 mg/ml) is reported as 60.8% and the Titer (wild-type vaccinia virus; G418 0.125 mg/ml) is reported as 1.58E+07. For the same compound, the “% Inhibition” value (wild-type vaccinia virus; G418 0.25 mg/ml) was 79.4%, the Titer (wild-type vaccinia virus; G418 0.25 mg/ml) was 8.26E+06 and the “% Inhibition” value (wild-type vaccinia virus; G418 0.5 mg/ml) was 93.7%. The Titer (wild-type vaccinia virus; G418 0.5 mg/ml) was 2.54E+06, the “% Inhibition” value (wild-type vaccinia virus; G418 1 mg/ml) was 96.6% and the Titer (wild-type vaccinia virus; G418 1 mg/ml) was 1.36E+06. The “% Inhibition” value (wild-type vaccinia virus; G418 2 mg/ml) was 99.6%, the Titer (wild-type vaccinia virus; G418 2 mg/ml) was 1.59E+05 and the “inhibition of amplification of vaccinia virus expressing heavy chain linked to a neomycin resistance marker” value (VHE H5 HX-A56R NEO) was “no inhibition effect”. For the same compound, the “% Inhibition” value (VHE H5 HX-A56R NEO; G418 0.125 mg/ml) was −26.7%, the Titer (VHE H5 HX-A56R NEO; G418 0.125 mg/ml) was 2.88E+07 and the “% Inhibition” value (VHE H5 HX-A56R NEO; G418 0.25 mg/ml) was −36.7%. For the same compound, the Titer (VHE H5 HX-A56R NEO; G418 0.25 mg/ml) was 3.11E+07, the “% Inhibition” value (VHE H5 HX-A56R NEO; G418 0.5 mg/ml) was −50.0% and the Titer (VHE H5 HX-A56R NEO; G418 0.5 mg/ml) was 3.41E+07. For the same compound, the “% Inhibition” value (VHE H5 HX-A56R NEO; G418 1 mg/ml) was −40.0%, the Titer (VHE H5 HX-A56R NEO; G418 1 mg/ml) was 3.18E+07 and the “% Inhibition” value (VHE H5 HX-A56R NEO; G418 2 mg/ml) was −33.3%. The Titer (VHE H5 HX-A56R NEO; G418 2 mg/ml) was 3.03E+07.
